Legend:
[1] = Stability of multibiotic agents in Simulated Gastric Fluid (SGF); assay type: in vitro ADME; conditions: simulated gastric fluid pH 1.6 with pepsin, 37° C., 1 μM
Procedure: Assay 3. Stability of multibiotic agents in Simulated Gastric Fluid (SGF). This assay can be used to assess the stability of a multibiotic agent in a stomach.
Medium was prepared by dissolving 2 g of sodium chloride in 0.6 L in ultrapure water (MilliQ®, Millipore Sigma, Darmstadt, Germany). The pH was adjusted to 1.6 with 1 N hydrochloric acid, and the volume was then adjusted to 1 L with purified water.
60 mg FaSSIF powder (Biorelevant™, London, UK) were dissolved in 500 mL buffer (above). Pepsin was added (0.1 mg/mL) (Millipore Sigma, Darmstadt, Germany), and the solution was stirred. The resulting SGF media were used fresh for each experiment.
Test compounds were dissolved in DMSO stock to 1 mM. An aliquot of the DMSO stock solution was removed and diluted in the SGF Media in 15 mL falcon tubes to generate a total compound concentration of 1 μM. A 1 mL aliquot was immediately removed and diluted once with 1 volume of acetonitrile for T0 timepoint. The mixture was sealed and mixed at 37° C. in an incubator. Aliquots (1 mL) were removed at regular intervals and immediately quenched by the addition of 1 volume of acetonitrile. The resulting samples were analyzed by LC/MS to determine degradation rates in SGF.

[2] = Stability of multibiotic agents in Simulated Intestinal Fluid (SIF); assay type: in vitro ADME; conditions: simulated intestinal fluid pH 6.7 with pancreatin, 37° C., 1 μM
Procedure: Assay 2. Stability of multibiotic agents in Simulated Intestinal Fluid (SIF). This assay can be used to assess the stability of a multibiotic agent in a small intestine. Phosphate buffer was prepared by dissolving 0.42 g of sodium hydroxide pellets and 3.95 g of monobasic sodium phosphate monohydrate and 6.19 g of sodium chloride in ultrapure water (MilliQ®, Millipore Sigma, Darmstadt, Germany). The pH was adjusted to 6.7 using aq. HCl and aq. NaOH, as necessary, and the solution was diluted with ultrapure water to produce 1 L of the pH 6.7 buffer. 112 mg FaSSIF powder (Biorelevant™, London, UK) was dissolved in 50 mL of the pH 6.7 buffer. 2 to 3 mL of the resulting solution were then added to 500 mg pancreatin (Millipore Sigma, Darmstadt, Germany). The resulting mixture was agitated by finger tapping the vessel containing the mixture until milky suspension formed. At this time, the remainder of the 50 mL FaSSiF/pH 6.7 buffer solution was added. The resulting suspension was flipped upside down 10 times to produce SIF, which was used fresh. Test compounds are dissolved in DMSO stock to 1 mM. An aliquot of the DMSO stock solution is removed and diluted in the SIF media in 15 mL falcon tubes to produce a mixture with a tested compound concentration of 1 μM. A 1 mL aliquot is immediately removed and diluted once with 1 volume of acetonitrile for T0 timepoint. The mixture is sealed and agitated at 37° C. in an incubator. Aliquots (1 mL) are removed at regular intervals and immediately quenched by the addition of 1 volume of acetonitrile. The resulting samples are analyzed by LC/MS to determine degradation rates.

Compound: CCCC(=O)O[C@H](C)CC(=O)Oc1ccc(/C=C/c2cc(OC(=O)C[C@@H](C)OC(=O)CCC)cc(OC(=O)C[C@@H](C)OC(=O)CCC)c2)cc1 [Example 72, [4-[(E)-2-[3,5-bis[[(3R)-3-butanoyloxybutanoyl]oxy]phenyl]vinyl]phenyl] (3R)-3-butanoyloxy-butanoate]
- Assay 2 (SGF) (% Remaining @ 4 hours) [1]: C (>75% of the tested compound remaining)
- Assay 3 (SIF) (% @ Remaining 4 hours) [2]: B (25-75% of the tested compound remaining)

Compound: CCCC(=O)O[C@H](C)CC(=O)Oc1ccc(/C=C/C(=O)CC(=O)/C=C/c2ccc(OC(=O)C[C@@H](C)OC(=O)CCC)c(OC)c2)cc1OC [Example 73, [4-[(1E,6E)-7-[4-[(3R)-3-butanoyloxybutanoyl]oxy-3-methoxy-phenyl]-3,5-dioxo-hepta-1,6-dienyl]-2-methoxy-phenyl] (3R)-3-butanoyloxybutanoate]
- Assay 2 (SGF) (% Remaining @ 4 hours) [1]: C (>75% of the tested compound remaining)
- Assay 3 (SIF) (% @ Remaining 4 hours) [2]: B (25-75% of the tested compound remaining)

Compound: CC(=O)Oc1cc(OC(C)=O)c2c(=O)c(OC(C)=O)c(-c3ccc(OC(C)=O)c(OC(C)=O)c3)oc2c1 [Example 74, [2-acetoxy-4-(3,5,7-triacetoxy-4-oxo-chromen-2-yl)phenyl] acetate]
- Assay 2 (SGF) (% Remaining @ 4 hours) [1]: C (>75% of the tested compound remaining)
- Assay 3 (SIF) (% @ Remaining 4 hours) [2]: A (<25% of the tested compound remaining)

Compound: CCCC(=O)Oc1cc(OC(=O)CCC)c2c(=O)c(OC(=O)CCC)c(-c3ccc(OC(=O)CCC)c(OC(=O)CCC)c3)oc2c1 [Example 75, [2-butanoyloxy-4-[3,5,7-tri(butanoyloxy)-4-oxo-chromen-2-yl]phenyl]butanoate]
- Assay 2 (SGF) (% Remaining @ 4 hours) [1]: C (>75% of the tested compound remaining)
- Assay 3 (SIF) (% @ Remaining 4 hours) [2]: B (25-75% of the tested compound remaining)

Compound: C[C@@H](O)CC(=O)O[C@H]1CO[C@H]2[C@@H]1OC[C@H]2OC(=O)C[C@@H](C)O [Example 78, [(3S,3aR,6R,6aR)-6-[(3R)-3-hydroxybutanoyl]oxy-2,3,3a,5,6,6a-hexahydrofuro[3,2-b]furan-3-yl] (3R)-3-hydroxybutanoate]
- Assay 2 (SGF) (% Remaining @ 4 hours) [1]: C (>75% of the tested compound remaining)
- Assay 3 (SIF) (% @ Remaining 4 hours) [2]: B (25-75% of the tested compound remaining)

Compound: CC(=O)OCc1cnc(C)c(O)c1COC(C)=O [Example 80, [4-(acetoxymethyl)-5-hydroxy-6-methyl-3-pyridyl] methyl acetate]
- Assay 2 (SGF) (% Remaining @ 4 hours) [1]: C (>75% of the tested compound remaining)
- Assay 3 (SIF) (% @ Remaining 4 hours) [2]: C (>75% of the tested compound remaining)

Compound: CC(=O)OC[C@H](OC(C)=O)[C@@H](COC(C)=O)OC(C)=O [Example 81, (2R, 3S)-butane-1,2,3,4-tetrayl tetraacetate]
- Assay 2 (SGF) (% Remaining @ 4 hours) [1]: C (>75% of the tested compound remaining)
- Assay 3 (SIF) (% @ Remaining 4 hours) [2]: C (>75% of the tested compound remaining)

Compound: CCCC(=O)OC[C@H](OC(=O)CCC)[C@@H](COC(=O)CCC)OC(=O)CCC [Example 82, (2R,3S)-butane-1,2,3,4-tetrayl tetrabutyrate]
- Assay 2 (SGF) (% Remaining @ 4 hours) [1]: C (>75% of the tested compound remaining)
- Assay 3 (SIF) (% @ Remaining 4 hours) [2]: B (25-75% of the tested compound remaining)

Compound: CO[C@@H]1[C@@H](OC(C)=O)[C@@H](OC(C)=O)[C@H](OC(C)=O)[C@H](OC(C)=O)[C@H]1OC(C)=O [Example 84, (1R,2R,3R,4S,5R,6R)-2,3,4,6-tetrakis(acetyloxy)-5-methoxycyclohexyl acetate]
- Assay 2 (SGF) (% Remaining @ 4 hours) [1]: C (>75% of the tested compound remaining)
- Assay 3 (SIF) (% @ Remaining 4 hours) [2]: C (>75% of the tested compound remaining)

Compound: CCCC(=O)O[C@H]1[C@H](OC(=O)CCC)[C@H](OC(=O)CCC)[C@@H](OC)[C@H](OC(=O)CCC)[C@H]1OC(=O)CCC [Example 85, (1R,2R,3R,4S,5R,6R)-2,3,4,6-tetrakis(butanoyloxy)-5-methoxycyclohexyl butanoate]
- Assay 2 (SGF) (% Remaining @ 4 hours) [1]: C (>75% of the tested compound remaining)
- Assay 3 (SIF) (% @ Remaining 4 hours) [2]: C (>75% of the tested compound remaining)

Compound: CC(=O)OC[C@@H](OC(C)=O)[C@H]1OC[C@H](OC(C)=O)[C@H]1OC(C)=O [Example 86, [(2R)-2-acetoxy-2-[(2R,3R,4S)-3,4-diacetoxytetrahydrofuran-2-yl]ethyl] acetate]
- Assay 2 (SGF) (% Remaining @ 4 hours) [1]: C (>75% of the tested compound remaining)
- Assay 3 (SIF) (% @ Remaining 4 hours) [2]: C (>75% of the tested compound remaining)

Compound: CCCC(=O)OC[C@@H](OC(=O)CCC)[C@H]1OC[C@H](OC(=O)CCC)[C@H]1OC(=O)CCC [Example 87, [(2R)-2-butanoyloxy-2-[(2R,3R,4S)-3,4-di (butanoyloxy)tetrahydrofuran-2-yl]ethyl] butanoate]
- Assay 2 (SGF) (% Remaining @ 4 hours) [1]: C (>75% of the tested compound remaining)
- Assay 3 (SIF) (% @ Remaining 4 hours) [2]: C (>75% of the tested compound remaining)

Compound: CC(=O)O[C@H]1CO[C@H]2[C@@H]1OC[C@H]2OC(C)=O [Example 88, [(3S,3aR,6R,6aR)-6-acetoxy-2,3,3a,5,6,6a-hexahydrofuro[3,2-b]furan-3-yl] acetate]
- Assay 2 (SGF) (% Remaining @ 4 hours) [1]: C (>75% of the tested compound remaining)
- Assay 3 (SIF) (% @ Remaining 4 hours) [2]: C (>75% of the tested compound remaining)

Compound: CC(=O)OCCCNC(=O)[C@H](OC(C)=O)C(C)(C)COC(C)=O [Example 89, 3-[[(2R)-2,4-diacetoxy-3,3-dimethyl-butanoyl]amino]propyl acetate]
- Assay 2 (SGF) (% Remaining @ 4 hours) [1]: C (>75% of the tested compound remaining)
- Assay 3 (SIF) (% @ Remaining 4 hours) [2]: C (>75% of the tested compound remaining)

Compound: CCCC(=O)OCCCNC(=O)[C@H](OC(=O)CCC)C(C)(C)COC(=O)CCC [Example 90, 3-[[(2R)-2,4-di(butanoyloxy)-3,3-dimethyl-butanoyl]amino] propyl butanoate]
- Assay 2 (SGF) (% Remaining @ 4 hours) [1]: C (>75% of the tested compound remaining)
- Assay 3 (SIF) (% @ Remaining 4 hours) [2]: A (<25% of the tested compound remaining)

Compound: CCCC(=O)O[C@H](C)CC(=O)OCCCNC(=O)[C@H](OC(=O)C[C@@H](C)OC(=O)CCC)C(C)(C)COC(=O)C[C@@H](C)OC(=O)CCC [Example 91, 3-[[(2R)-2,4-bis[[(3R)-3-butanoyloxybutanoyl]oxy]-3,3-dimethyl-butanoyl]amino]propyl (3R)-3-butanoyloxybutanoate]
- Assay 2 (SGF) (% Remaining @ 4 hours) [1]: C (>75% of the tested compound remaining)
- Assay 3 (SIF) (% @ Remaining 4 hours) [2]: A (<25% of the tested compound remaining)

Compound: CC(C)(COC(=O)Cc1c[nH]c2ccccc12)[C@@H](OC(=O)Cc1c[nH]c2ccccc12)C(=O)NCCCOC(=O)Cc1c[nH]c2ccccc12 [Example 92, 3-[[(2R)-2,4-bis[[2-(1H-indol-3-yl)acetyl]oxy]-3,3-dimethyl-butanoyl]amino]propyl 2-(1H-indol-3-yl)acetate]
- Assay 2 (SGF) (% Remaining @ 4 hours) [1]: C (>75% of the tested compound remaining)
- Assay 3 (SIF) (% @ Remaining 4 hours) [2]: C (>75% of the tested compound remaining)

Compound: CC(=O)OCC(C)(C)[C@@H](OC(C)=O)C(=O)NCCC(N)=O [Example 94, [(3R)-3-acetoxy-4-[(3-amino-3-oxo-propyl)amino]-2,2-dimethyl-4-oxo-butyl] acetate]
- Assay 2 (SGF) (% Remaining @ 4 hours) [1]: C (>75% of the tested compound remaining)
- Assay 3 (SIF) (% @ Remaining 4 hours) [2]: C (>75% of the tested compound remaining)

Reference: US20230293458A1, “MULTIBIOTIC AGENTS AND METHODS OF USING THE SAME” (Flagship Pioneering Innovations V, Inc., priority 2017, published 2023)
